This is an account of results in patent US9981970B2, “Bicyclic ureas and thiadiazolidine-1, 1-dioxides as CETP inhibitors” (Merck Sharp & Dohme Corp., priority 2013, dated 2018).

SMILES strings stand for the structures.

The term IC50 denotes the concentration needed to halve the response being measured.

Assay [1] deals with T1, endogenous CETP from serum (Homo sapiens, UniProt P11597).
T1 construct: yielding a concentration of approximately 15 nM endogenous CETP in the assay; from tissue; host or cells: human serum
T1 sequence (P11597 18-493): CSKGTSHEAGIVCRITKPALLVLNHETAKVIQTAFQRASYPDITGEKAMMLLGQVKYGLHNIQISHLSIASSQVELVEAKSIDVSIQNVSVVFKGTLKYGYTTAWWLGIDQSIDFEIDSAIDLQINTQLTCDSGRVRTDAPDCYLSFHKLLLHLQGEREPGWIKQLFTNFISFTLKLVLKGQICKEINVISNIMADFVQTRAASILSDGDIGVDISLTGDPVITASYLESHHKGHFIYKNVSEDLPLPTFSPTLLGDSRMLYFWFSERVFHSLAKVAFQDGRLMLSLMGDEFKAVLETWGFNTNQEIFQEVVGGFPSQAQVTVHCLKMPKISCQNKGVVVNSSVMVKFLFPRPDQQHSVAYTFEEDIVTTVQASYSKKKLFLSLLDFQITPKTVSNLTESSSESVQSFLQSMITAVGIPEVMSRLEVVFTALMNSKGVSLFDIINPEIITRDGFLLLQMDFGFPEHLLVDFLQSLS
In words: RTA assay in 95% human serum (in vitro radioactive assay of CETP-catalyzed CE and TG transfer). It counts as biochemical. The following applies: Table 1; data generally obtained using the RTA assay in 95% human serum; read-out: IC50. From the text:
In Vitro Radioactive Assays of CETP-Catalyzed CE and TG Transfer (RTA Assay)
Reagents and sources are: [3H] cholesteryl oleate (GE #TRK.886), [3H] Triolein (Perkin-Elmer NET-431), Butylated hydroxyl toluene (Aldrich, #D4740-4), DOPC (Sigma, # P6354), Sodium Bromide (Fisher scientific #S255-500), PEG 8000 (Fisher, #BP233-1), and human HDL (Intracel Corp #RP-036).
Both assays measure the transfer of [3H] cholesteryl oleate or [3H] triolein from exogenous LDL to HDL.
Radiolabeled donor particles are generated by first combining 100 μl of 200 μM butylated hydroxyl toluene in CHCl3, 216 μL of 21.57 mM DOPC in EtOH, and either 500 μCi [3H]-triolein (Perkin Elmer #NET-431) or 500 μCi [3H]-cholesteryl oleate (GE #TRK886) in a glass tube. Reagents are mixed, dried under nitrogen, and then resuspended in 2 mL of 50 mM Tris, 27 μM EDTA at pH 7.4. After a brief vortex, the solution is sonicated until clear and mixed with 20 mL of fresh human serum. The mixture is incubated overnight at 37° C. The [3H] labeled LDL substrate is separated at 1.063 g/ml density by sequential ultracentrifugal flotation in NaBr according to the method of Havel, Eder, et al., 1955, and Chapman, Goldstein, et al., 1981. Once isolated the particles are dialyzed 3× in CETP buffer (50 mM Tris, pH 7.4, 100 mM NaCl, 1 mM EDTA). Human HDL is purchased from Intracel and used as the acceptor particles.
Transfer assays are performed in a 96-well v-bottom polypropylene plate. For the RTA using recombinant CETP (2% RTA), an assay cocktail is prepared with the final concentrations 128 μg/mL HDL, 20 nM rCETP, 2% human serum, and 1×CETP buffer. 1 μL of each test compound diluted in DMSO is added to 47 μL of assay cocktail per well and incubated at 37° C. for 1 hour. To initiate the transfer reaction, 2 μL radiolabeled LDL is added. After an additional 60 min of incubation at 37° C., the transfer action is terminated by precipitation of LDL with an equal volume of 20% WN PEG 8000. The plates are centrifuged at 2000 rpm for 30 minutes at 4° C. A 40 μL aliquot of the HDL-containing supernatant is transferred to a Packard Optiplate™ with 200 μL of MicroScint™ 20. After mixing, plates are counted by liquid scintillation. Counts present in the supernatant for blanks (wells containing only HDL acceptor, CETP buffer and DMSO) are subtracted from those containing test compounds and used to correct for non-specific transfer.
This is then combined with HDL and CETP buffer and the reaction proceeds as above and is terminated as described.
Comparison of the counts of samples with inhibitors to an uninhibited (DMSO only) positive control yield a percent inhibition. A plot of percent inhibition vs. log of inhibitor concentration, fit to a Sigmoidal 4 parameter equation is used to calculate IC50.
Starting materials are commercially available or are made using known procedures or as shown below. The examples may be synthesized according to the general schemes provided below and by using the synthetic intermediates that are described. […] When compounds of Formula I are mentioned herein, such compounds include compounds defined generically by Formula I and also the specific examples disclosed herein.

The conditions of assay [2]: patients on anacetrapib with baseline statin therapy compared with patients treated with just a statin; cited from earlier work.

For the molecule `COc1ncc(-c2ccc(C(=O)O)cc2C)cc1-c1ccc(C(F)(F)F)cc1[C@@H]1CC[C@H]2[C@@H](c3ccnc(C(F)(F)F)c3)NC(=O)N12` [Example 18, 4-{6-methoxy-5-[2-{(1R,5S,7aS)-3-oxo-1-[2-(trifluoromethyl)pyridin-4-yl]hexahydro-1H-pyrrolo[1,2-c]imidazol-5-yl}-4-(trifluoromethyl)phenyl]pyridin-3-yl}-3-methylbenzoic acid], the 50% inhibitory concentration (IC50) in assay [1] turned out to be 5.04 µM.
For `COc1ccc(-c2ccc(C(=O)O)cc2C)cc1-c1ccc(C(F)(F)F)cc1[C@@H]1CC[C@H]2[C@@H](c3ccnc(C(F)(F)F)c3)NC(=O)N12` [Example 19, 4′-methoxy-2-methyl-2″-{(1R,5S,7aS)-3-oxo-1-[2-(trifluoromethyl)pyridin-4-yl]hexahydro-1H-pyrrolo[1,2-c]imidazol-5-yl}-4″-(trifluoromethyl)-1,1′:3′,1″-terphenyl-4-carboxylic acid], the IC50 in assay [1] was determined as 4.87 µM.
The same measure, in the same setting: the result for `COc1ccc(-c2ccc(C(=O)O)cc2C)cc1-c1cnc(C(F)(F)F)cc1[C@@H]1CC[C@H]2[C@@H](c3cc(C(F)(F)F)cc(C(F)(F)F)c3)NC(=O)N12` [Example 20, 3′-[4-{(1R,5S,7aS)-1-[3,5-bis(trifluoromethyl)phenyl]-3-oxohexahydro-1H-pyrrolo[1,2-c]imidazol-5-yl}-6-(trifluoromethyl)pyridin-3-yl]-4′-methoxy-2-methylbiphenyl-4-carboxylic acid] reads 1.57 µM; that for `COc1ccc(-c2ccc(C(=O)O)cc2C)cc1-c1ccc(C(F)(F)F)cc1[C@@H]1CC[C@H]2[C@@H](c3cc(C(F)(F)F)cc(C(F)(F)F)c3)NS(=O)(=O)N12` [Example 22, 2″-{(3R,3aS,6S)-3-[3,5-bis(trifluoromethyl)phenyl]-1,1-dioxidohexahydropyrrolo[1,2-b][1,2,5]thiadiazol-6-yl}-4′-methoxy-2-methyl-4″-(trifluoromethyl)-1,1′,:3′,1″-terphenyl-4-carboxylic acid], 0.984 µM.
Still for that read-out and setting: to `COc1ccc(C2CCC(C(=O)O)CC2)cc1-c1ccc(C(F)(F)F)cc1[C@@H]1CC[C@H]2[C@@H](c3cc(C(F)(F)F)cc(C(F)(F)F)c3)NS(=O)(=O)N12` (stereo partly drawn) [Example 23, 4-[2′-{(3R,3aS,6S)-3-[3,5-bis(trifluoromethyl)phenyl]-1,1-dioxidohexahydropyrrolo[1,2-b][1,2,5]thiadiazol-6-yl}-6-methoxy-4′-(trifluoromethyl)biphenyl-3-yl]cyclohexanecarboxylic acid] belongs 0.268 µM; to `COc1ncc(-c2ccc(C(=O)O)cc2C)cc1-c1ccc(C(F)(F)F)cc1[C@@H]1CC[C@H]2[C@@H](c3cc(F)cc(C(F)(F)F)c3)NS(=O)(=O)N12` [Example 24, 4-{5-[2-{(3R,3aS,6S)-3-[3-fluoro-5-(trifluoromethyl)phenyl]-1,1-dioxidohexahydropyrrolo[1,2-b][1,2,5]thiadiazol-6-yl}-4-(trifluoromethyl)phenyl]-6-methoxypyridin-3-yl}-3-methylbenzoic acid], 1.26 µM.
Still for that read-out and setting: to `COc1ccc(CCC(=O)O)cc1-c1ccc(C(F)(F)F)cc1[C@@H]1CC[C@H]2[C@@H](c3cc(F)cc(C(F)(F)F)c3)NS(=O)(=O)N12` [Example 25, 3-[2′-{(3R,3aS,6S)-3-[3-fluoro-5-(trifluoromethyl)phenyl]-1,1-dioxidohexahydropyrrolo[1,2-b][1,2,5]thiadiazol-6-yl}-6-methoxy-4′-(trifluoromethyl)biphenyl-3-yl]propanoic acid] belongs 3.12 µM.
Take `COc1cc(F)c(C(C)C)cc1-c1ccc(C(F)(F)F)cc1CN1C(=O)O[C@H](c2cc(C(F)(F)F)cc(C(F)(F)F)c2)[C@@H]1C` [anacetrapib]: in assay [2], the “decrease of LDL-C” value is recorded as 40% and the “increase of HDL-C” value is given as 138%.
